Here are results for twelve compounds from patent publication US7344850B2, “Identification of active-site inhibitors of glycosyltransferases using a generalizable high-throughput screen” (Princeton University, priority 2003, dated 2008).

The structures appear in SMILES notation. Like-named read-outs stand apart in the source and are kept apart here.

In test [1] the target is T1, MurG (Escherichia coli, UniProt P17443). The experiment in a line: fluorescence polarization displacement assay with labeled donor F1. In kind it is binding, E. coli. The following applies: for Signal change at 25 μM (drop in fluorescence polarization): 25 μM competitor; for Kd: read-out: Dissociation constants. (Polarisation of emitted light reports the rotation of a fluorescent probe.)

In test [2] the target is T1, MurG. The following applies: biotin-capture assay, C10-Lipid I acceptor; cited from earlier work.
Test [3] addresses T1, MurG. The experiment in a line: radiometric kinetic assay (incorporation of 14C-GlcNAc into Lipid II), secondary screen and IC50. It is filed as biochemical, E. coli. As to conditions: for inhibition pattern with respect to UDP-GlcNAc: kinetic analysis.
A further test deals with T2, OGT (Homo sapiens, UniProt O15294).
T2 construct: His tag; made in house; host or cells: E. coli BL21 (DE3) (Novagen)
T2 sequence (O15294 51-920 isoform O15294-2 limits assumed): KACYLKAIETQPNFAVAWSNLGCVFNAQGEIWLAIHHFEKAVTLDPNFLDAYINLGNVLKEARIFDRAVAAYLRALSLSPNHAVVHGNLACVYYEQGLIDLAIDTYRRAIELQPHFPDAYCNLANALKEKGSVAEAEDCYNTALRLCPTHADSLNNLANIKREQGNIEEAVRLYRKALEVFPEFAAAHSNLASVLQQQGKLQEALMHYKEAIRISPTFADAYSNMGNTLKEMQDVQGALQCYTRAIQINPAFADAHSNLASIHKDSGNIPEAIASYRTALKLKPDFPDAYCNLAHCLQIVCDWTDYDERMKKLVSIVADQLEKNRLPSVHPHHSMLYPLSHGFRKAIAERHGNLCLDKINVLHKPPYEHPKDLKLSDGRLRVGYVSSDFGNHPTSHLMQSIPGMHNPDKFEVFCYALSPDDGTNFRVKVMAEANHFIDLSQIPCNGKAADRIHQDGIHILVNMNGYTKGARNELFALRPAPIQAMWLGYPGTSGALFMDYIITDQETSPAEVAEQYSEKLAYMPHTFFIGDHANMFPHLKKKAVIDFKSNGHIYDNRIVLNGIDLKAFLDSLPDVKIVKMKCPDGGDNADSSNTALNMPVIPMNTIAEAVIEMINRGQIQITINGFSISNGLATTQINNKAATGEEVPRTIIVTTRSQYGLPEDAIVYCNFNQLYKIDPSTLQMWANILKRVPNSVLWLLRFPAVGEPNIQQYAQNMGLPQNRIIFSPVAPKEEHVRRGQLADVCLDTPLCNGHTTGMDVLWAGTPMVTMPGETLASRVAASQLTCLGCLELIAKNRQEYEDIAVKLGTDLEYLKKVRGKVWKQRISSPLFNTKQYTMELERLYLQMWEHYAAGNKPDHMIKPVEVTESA
The experiment in a line: Assay for OGT. In kind it is biochemical. The protocol:
The mitochondrial splice variant of OGT, minus the first 50 amino acids, was cloned into pET 32b, and expressed from Novagen BL21 (DE3) cells. The pellet was lysed with B-PER (Pierce) and rLysozyme (Novagen) and the soluble fraction was purified using His-Bind Resin (Novagen). Assay reaction buffer was 10 mM Tris pH 7.4 with 100 μg/mL BSA. […] Inhibitors tested were added in 0.5 μL of DMSO and the final reaction volume was 20 μL. The reactions were quenched after 50 min at room temperature with 10 μL of formic acid and spotted onto phosphocellulose (Whatman P81) paper disks. The disks were washed for 3×5 min with 1% phosphoric acid, 1 min with acetone and dried before counting. The samples were measured by liquid scintillation counting.

Another test deals with PBP1b (Escherichia coli, UniProt P02919). Kind of test: Assays for transglycosylase PBP1b. It is filed as biochemical. The protocol:
The protein was purified as described. Chen, L., Men, H., Ha, S., Ye, X.-Y., Brunner, L., Hu, Y., Walker, S. Biochemistry 2002; Tetrahedron 58, 6585 (2002). Assays were carried out by separately incubating varying amounts of ^14C-GlcNAc-labeled C35 Lipid II (specific activity=273 cpm/pmol) and inhibitors in eppendorf tubes containing 9 μL of buffer (50 mM HEPES at pH 7.5, 10 mM CaCl2, 1000 U/mL penicillin G, 0.2 mM decyl PEG, and 11% DMSO), and 1 μL PBP1b (from a solution freshly prepared by diluting the 50% glycerol stock 20-fold into 5 mM Tris buffer, pH 8.0, containing 8 mM decyl PEG) for 10 min. Reactions were started by adding 1 μL of the above PBP1b mixture to the substrate solution, and were typically stopped after 15 min by adding 10 μL ice cold 10 mM Tris (pH 8.0) containing 0.2% Triton X-100. Reactions were left on ice until spotted on cellulose chromatography paper (3M Whatman chromatography paper). Products and starting material were separated following the works of Anderson et al. using chromatography (isobutyric acid: 1N NH4OH=5:3) and quantitated by scintillation counting. Biochemistry 53, 881 (1965).

A further test deals with GtfB (Amycolatopsis orientalis, UniProt P96559). Kind of test: biochemical.
Chain of GtfB (P96559 whole entry): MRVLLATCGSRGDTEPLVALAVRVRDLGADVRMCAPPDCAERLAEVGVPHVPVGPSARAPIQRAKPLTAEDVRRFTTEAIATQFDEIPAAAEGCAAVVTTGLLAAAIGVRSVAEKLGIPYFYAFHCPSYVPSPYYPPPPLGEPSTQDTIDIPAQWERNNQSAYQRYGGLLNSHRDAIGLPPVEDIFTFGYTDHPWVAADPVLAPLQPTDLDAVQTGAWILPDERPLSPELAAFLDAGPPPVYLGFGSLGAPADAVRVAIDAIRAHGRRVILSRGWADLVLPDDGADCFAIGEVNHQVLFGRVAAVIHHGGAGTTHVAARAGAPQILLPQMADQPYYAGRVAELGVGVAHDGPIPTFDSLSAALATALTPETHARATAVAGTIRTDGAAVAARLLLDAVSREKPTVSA

T1 sequence (P17443 whole entry): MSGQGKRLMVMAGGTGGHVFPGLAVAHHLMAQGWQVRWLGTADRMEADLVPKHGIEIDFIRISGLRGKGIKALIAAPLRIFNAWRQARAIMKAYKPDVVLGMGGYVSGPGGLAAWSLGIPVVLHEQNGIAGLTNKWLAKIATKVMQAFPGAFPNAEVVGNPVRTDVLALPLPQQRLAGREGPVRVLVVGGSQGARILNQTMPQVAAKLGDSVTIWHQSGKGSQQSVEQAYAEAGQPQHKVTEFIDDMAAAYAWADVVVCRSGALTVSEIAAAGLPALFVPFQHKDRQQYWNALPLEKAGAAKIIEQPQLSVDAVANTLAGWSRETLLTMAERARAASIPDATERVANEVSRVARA
Chain of PBP1b (P02919 whole entry): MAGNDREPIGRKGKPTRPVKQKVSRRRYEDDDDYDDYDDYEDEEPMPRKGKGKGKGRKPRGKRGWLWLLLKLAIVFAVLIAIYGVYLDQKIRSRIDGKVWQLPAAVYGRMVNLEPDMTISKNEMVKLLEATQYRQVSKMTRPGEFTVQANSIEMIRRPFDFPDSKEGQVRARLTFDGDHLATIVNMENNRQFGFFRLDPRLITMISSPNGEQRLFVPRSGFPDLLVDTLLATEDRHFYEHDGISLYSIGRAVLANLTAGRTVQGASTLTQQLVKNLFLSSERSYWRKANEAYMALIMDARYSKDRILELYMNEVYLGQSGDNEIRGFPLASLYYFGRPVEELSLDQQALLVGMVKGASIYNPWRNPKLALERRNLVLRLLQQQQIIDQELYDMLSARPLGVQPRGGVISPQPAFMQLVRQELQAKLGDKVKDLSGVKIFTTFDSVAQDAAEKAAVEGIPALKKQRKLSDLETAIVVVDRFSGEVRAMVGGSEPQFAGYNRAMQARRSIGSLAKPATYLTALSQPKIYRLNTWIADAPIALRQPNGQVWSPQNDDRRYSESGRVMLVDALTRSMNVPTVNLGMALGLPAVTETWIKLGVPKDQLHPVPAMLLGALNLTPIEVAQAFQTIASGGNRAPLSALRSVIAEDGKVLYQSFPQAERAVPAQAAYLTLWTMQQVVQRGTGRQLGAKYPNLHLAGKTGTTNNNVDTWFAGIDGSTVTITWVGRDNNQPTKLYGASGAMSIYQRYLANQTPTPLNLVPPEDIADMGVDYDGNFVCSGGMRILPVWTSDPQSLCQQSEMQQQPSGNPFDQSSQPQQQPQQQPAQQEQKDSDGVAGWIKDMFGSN
Procedure for GtfB: Inhibitors, dissolved in DMSO, were added at the indicated concentrations to 20 μL reactions containing 50 nM GtfB, 2 mM UDP-glucose, 75 mM Tricine (pH 9), 4 mM TCEP and 600 μM vancomycin aglycone. For consistency, all reactions contained 5% DMSO. Reactions were incubated at 37° C. for 1.5 hr, then quenched with 20 μL cold methanol and centrifuged at 13,000 rpm for 10 min. Reaction mixtures were resolved by analytical HPLC, using a gradient of 0-45% acetonitrile in water/0.1% TFA over 15 min, at a flow rate of 1 mL per minute. Product formation was monitored by UV absorbance at 285 nm.

What is called IC50 is the concentration that inhibits the measured activity by half. `Nc1ncnc2c1ncn2[C@@H]1O[C@H](COP(=O)(O)OP(=O)(O)O)[C@@H](O)[C@H]1O` [ADP]: the “Signal change at 25 μM (drop in fluorescence polarization)” value (“Signal change at 25 μM” for short) on MurG [1] was less than 10%. In addition, the Kd at MurG [1] (displacement of F1 from MurG) amounted to 88.2 ± 26.9 µM. Further, at MurG [2], the IC50 is 1260 ± 300 µM.

As for `CC1CCN(CN2C(=O)/C(=C\c3ccc(C(C)(C)C)cc3)SC2=S)CC1` [Compound 1, 5-(4-tert-Butyl-benzylidene)-3-(4-methyl-piperidin-1-ylmethyl)-2-thioxo-thiazolidin-4-one], the IC50 at MurG [3] was 1.4 µM; on OGT (read-out: IC50 OGT) it was more than 100 µM; at PBP1b (read-out: IC50 PBP1b) it was more than 100 µM; on GtfB, 15 µM. In addition, the “inhibition pattern with respect to UDP-GlcNAc” value (from here on “inhibition pattern”) against MurG [3] is listed as “competitive inhibitors”.

As to `O=C(O)CN1C(=O)/C(=C\c2cc(Cl)cc(Br)c2O)SC1=S` [Compound 2], the IC50 against MurG [3] is 3.4 µM; on OGT (read-out: IC50 OGT), more than 100 µM; on PBP1b (read-out: IC50 PBP1b) it was more than 100 µM; at GtfB it was 4 µM.

For `O=C1/C(=C2/C(=O)N(Cc3ccccc3)c3ccc(Br)cc32)SC(=S)N1CCS(=O)(=O)O` [Compound 3], the IC50 against MurG [3] was 3.5 µM; at OGT (read-out: IC50 OGT) it was more than 100 µM; at PBP1b (read-out: IC50 PBP1b), more than 100 µM; on GtfB, 15 µM.

On to `O=C1NC(=O)N(c2ccc(Cl)cc2)C(=O)/C1=C/c1ccc(Br)o1` [Compound 4], for which the IC50 on MurG [3] was 6.4 µM; against OGT, more than 100 µM; on PBP1b, more than 100 µM; at GtfB it was 11 µM.

For the compound `Cc1cc(/C=C2\C(=O)NC(=S)N(c3cccc(Cl)c3)C2=O)c(C)n1-c1cc(C(=O)O)cc(C(=O)O)c1` [Compound 5], the IC50 is 1.4 µM at MurG [3], more than 100 µM on OGT, more than 100 µM against PBP1b and 50 µM against GtfB. In addition, at MurG [3], the “inhibition pattern” value is given as “competitive inhibitors”.

As for `CC(C)(C)c1ccc(OCCOc2cccc(C=C3C(=O)NC(=S)NC3=O)c2)cc1` [Compound 6], the IC50 was 4 µM on MurG [3], more than 100 µM on OGT, more than 100 µM at PBP1b and 100 µM against GtfB.

`O=C(O)c1ccc(N2C(=O)/C(=C/c3ccc(-c4ccc(Br)cc4)o3)C=C2c2ccccc2)cc1` [Compound 7]: the IC50 was 5.4 µM on MurG [3], more than 100 µM at OGT (read-out: IC50 OGT), more than 100 µM on PBP1b (read-out: IC50 PBP1b) and 100 µM against GtfB. Further, the “inhibition pattern” value against MurG [3] is “competitive inhibitors”.

Broadly, the inhibition is the share of the control response that was lost under treatment. As to `O=c1ccn([C@@H]2O[C@H](COP(=O)(O)OP(=O)(O)O)[C@@H](O)[C@H]2O)c(=O)[nH]1` [UDP, uridine diphosphate], the “polarization reading relative to wells containing only MurG and labeled donor” value on MurG [1] (25 μM UDP control well) was “approximately 50%”. On MurG [1], the “Signal change at 25 μM” value is recorded as 50% and the Kd is 2.6 ± 0.2 µM. Also, on MurG [3] (read-out: inhibition of MurG reaction (drop in product formation)), the inhibition at 5 µM was found to be 50%. The IC50 at MurG [2] was 65 ± 1 µM.

For `CC(=O)N[C@H]1[C@@H](OP(=O)(O)OP(=O)(O)OC[C@H]2O[C@@H](n3ccc(=O)[nH]c3=O)[C@H](O)[C@@H]2O)O[C@H](CO)[C@H](O)[C@@H]1O` [UDP-GalNAc], the “Signal change at 25 μM” value at MurG [1] is listed as 10%. Moreover, the Kd on MurG [1] (displacement of F1 from MurG) was found to be 73.1 ± 14.1 µM. In addition, the IC50 at MurG [2] is more than 1000 µM.

For the compound `CC(=O)N[C@H]1[C@@H](OP(=O)(O)OP(=O)(O)OC[C@H]2O[C@@H](n3ccc(=O)[nH]c3=O)[C@H](O)[C@@H]2O)O[C@H](CO)[C@@H](O)[C@@H]1O` [UDP-GlcNAc, UDP-N-acetylglucosamine], the Kd at MurG [1] (displacement of F1 from MurG) came out at 1.8 ± 0.2 µM.

For `O=c1ccn([C@@H]2O[C@H](COP(=O)(O)O)[C@@H](O)[C@H]2O)c(=O)[nH]1` [UMP], the “Signal change at 25 μM” value on MurG [1] was less than 10%. Also, the Kd at MurG [1] (displacement of F1 from MurG) was found to be 99.6 ± 12.2 µM. On MurG [2], the half-inhibitory concentration (IC50) is 600 ± 50 µM.
